Reference: PMC8778445, “HPLC-MS Profiling, Antioxidant, Antimicrobial, Antidiabetic, and Cytotoxicity Activities of Arthrocnemum indicum (Willd.) Moq. Extracts” (Plants, 2022)

Molecular target: T1, Intestinal Alpha-glucosidase type I (α-glucosidase)
T1 construct: gene MAL12; commercial enzyme (Sigma-Aldrich), no catalogue number
Assay: alpha-glucosidase inhibition assay
Type: biochemical
Conditions: positive control; 4-nitrophenyl β-d-glucopyranoside listed among reagents (beta anomer as printed); pH, temperature not given
Description: alpha-glucosidase inhibition assay on Intestinal Alpha-glucosidase type I (α-glucosidase)

- α-Glucosidase (IC50 mg/mL): 1.12 ± 0.08 mg/mL
SMILES: C[C@H]1O[C@H](O[C@H]2[C@H](O)[C@@H](O)[C@@H](O[C@H]3[C@H](O)[C@@H](O)C(O)O[C@@H]3CO)O[C@@H]2CO)[C@H](O)[C@@H](O)[C@@H]1N[C@H]1C=C(CO)[C@@H](O)[C@H](O)[C@H]1O (stereo partly shown) [acarbose]
